For assay [1], the system named is A-549 (monolayer culture of a human lung carcinoma). Kind of assay: in vitro cytotoxic assay, A-549 cells. The class given is cell-based. Conditions: A549, 72 h, three days of incubation, Crystal Violet staining, approximate IC50. The procedure: (§1) Cells were maintained in logarithmic phase of growth in Eagle's Minimum Essential Medium, with Earle's Balanced Salts, with 2.0 mM L-glutamine, with non-essential amino acids, without sodium bicarbonate EMEM/neaa); supplemented with 10% Fetal Calf Serum (FCS), 10^−2 M sodium bicarbonate and 0.1 g/l penicillin-G+streptomycin sulfate.
(§2) A screening procedure has been carried out to determine and compare the antitumor activity of these compounds, using an adapted form of the method described by Bergeron et al. (Reference 5). The antitumor cells employed were P-388 (suspension culture of a lymphoid neoplasm from DBA/2 mouse), A-549 (monolayer culture of a human lung carcinoma), HT-29 (monolayer culture of a human colon carcinoma) and MEL-28 (monolayer culture of a human melanoma).
(§3) A-549, HT-29 and MEL-28 cells were seeded into 16 mm wells at 2×10^4 cells per well in 1 ml aliquots of MEM 10FCS containing the indicated concentration of drug. A separate set of cultures without drug was seeded as control growth to ensure that cells remained in exponential phase of growth. All determinations were carried out in duplicate. After three days of incubation at 37° C., 10% CO2 in a 98% humid atmosphere, the wells were stained with 0.1% Crystal Violet. An approximately IC50 was determined by comparing the growth in wells with drug to the growth in wells control.

The subject of assay [2] is solid tumors like A-549, HT-29 and MEL-28. Kind of assay: in vitro antitumor selectivity across the cytotoxicity panel. In kind it is cell-based, human. Conditions: solid tumor lines A-549, HT-29, MEL-28 compared with P-388. As to the method:
as §2
(§4) […] cells were seeded into 16 mm wells at 1×10^4 sells per well in 1 ml aliquots of MEM SFCS containing the indicated concentration of drug. A separate set of cultures without drug was seeded as control growth to ensure that cells remained in exponential phase of growth. All determinations were carried out in duplicate. After three days of incubation at 37° C., 10% CO2 in a 98% humid atmosphere, an approximately IC50 was determined by comparing the growth in wells with drug to the growth in wells control.
A-549, HT-29 and MEL-28 cells were seeded into 16 mm wells at 2×10^4 cells per well in 1 ml aliquots of MEM 10FCS containing the indicated concentration of drug. A separate set of cultures without drug was seeded as control growth to ensure that cells remained in exponential phase of growth. […] An approximately IC50 was determined by comparing the growth in wells with drug to the growth in wells control.

Assay [3] concerns P-388 (suspension culture of a lymphoid neoplasm from DBA/2 mouse). Kind of assay: in vitro cytotoxic assay, P-388 cells. Conditions: P388, 72 h, three days of incubation, approximate IC50 by growth vs control wells. In kind it is cell-based. As to the method:
as §1, §2, §4

For assay [4], the system named is MEL-28 (monolayer culture of a human melanoma). Kind of assay: in vitro cytotoxic assay, MEL-28 cells. In kind it is cell-based. Conditions: SK-MEL-28, 72 h, three days of incubation, Crystal Violet staining, approximate IC50. As to the method:
as §1, §2, §3

Assay [5] deals with HT-29 (monolayer culture of a human colon carcinoma). Kind of assay: in vitro cytotoxic assay, HT-29 cells. In kind it is cell-based. Conditions: 72 h, three days of incubation, Crystal Violet staining, approximate IC50. The procedure: as §1, §2, §3

The IC50 is the concentration needed to halve the response being measured.

With `COC(CC1OC(=O)CC(OC(N)=O)CC(C)CC(O)C(C)C(OC)c2coc(n2)-c2coc(n2)-c2coc(n2)/C=C/CC(OC)C1C)C(C)CCC(=O)C(C)C(OC)C(C)CC=O` (centres unmarked) [TH-2], the IC50 turned out to be 2 nM in assay [1], 11 nM in assay [3], 2 nM in assay [4] and 2 nM in assay [5]. In addition, the “in vitro antitumor selectivity for solid tumors” value in assay [2] is on record as “in vitro antitumor selectivity for solid timors”.

The values above are taken from patent publication US6391900B1, “Cytotoxic tris(oxazole)-containing macrolides” (Instituto Biomar S.A., priority 1998, dated 2002).
